Results published in patent US20190218170A1, “BRANCHED TRIALKYLAMINE PRECURSORS, INTERMEDIATES, PRODUCTS MADE THEREFROM AND PROCESSES OF MANUFACTURE” (priority 2018, published 2019).
Like-named read-outs stand apart in the source and are kept apart here.

How the values were obtained:
Candida albicans = assay: Microplate dilution assay MIC/MLC; type: cell-based; conditions: for MIC < 10%: growth less than 10% of control; for MIC < 50%: growth less than 50% of control; for MLC: minimum lethal concentration
Experimental: (§1) The minimum inhibitory concentration (MIC) and the minimum lethal concentration (MLC) of the chemicals were determined using a microplate dilution assay. Quats were provided as aqueous solutions, while Triclosan and Chloroxylenol were provide as powders which were first dissolved at 5 weight percent in absolute ethanol. A two-fold serial dilution series of each test chemical was prepared in Trypticase Soy Broth at 20% of the standard concentration (TSB20) and in Sabouraud Dextrose Broth at 20% of the standard concentration (SDB20) in 96-well micro-titer plates. A total of 10 dilutions were prepared and four replicate tests were performed for each dilution. […] Control solutions containing only media were included for each plate. Suspensions of Staphylococcus aureus, Escherichia coli, and Candida albicans were prepared from one-day old agar plate cultures in Butterfields Phosphate Diluent to a concentration of approximately 10^7 to 10^8 cells per milliliter. Each test well was inoculated with the diluted culture suspensions at a concentration of 10^3 to 10^4 cells per well and then incubated at 32° C. with shaking at 150 rpm for approximately 24 hours, after which the optical density of each well was determined spectrophotometrically at 600 nm. Wells containing uninoculated media without test chemical were included in each plate as negative controls and, following inoculation, as positive controls.
(§2) Selected wells at or below the MIC were tested for MLC by spotting three microliters from each replicate well onto Trypticase Soy agar for S. aureus and E. coli, or Sabouraud Dextrose agar for C. albicans.

Escherichia coli = assay: Microplate dilution assay MIC/MLC; type: cell-based; conditions: for MIC < 10%: growth less than 10% of control, 24 hours, 32° C.; for MIC < 50%: growth less than 50% of control; for MLC: minimum lethal concentration
Experimental: as §1, §2

Staphylococcus aureus = assay: Microplate dilution assay MIC/MLC; type: cell-based; conditions: for MIC < 10%: growth less than 10% of control; for MIC < 50%: growth less than 50% of control; for MLC: minimum lethal concentration
Experimental: as §1, §2

[1] = Ready Biodegradability CO2 Evolution Test OECD 301B
Experimental: The biodegradability of the branched aldehyde intermediates of Example 2 (4-ethyl-2-methyloctanal) and Example 25 (2,4-diethyl-2-octenal) were determined by the Ready Biodegradability—CO2 Evolution Test—Degradation of test compound according to OECD Guidelines for Testing of Chemicals CO2 Evolution Test 301B.

[2] = Foaming of amine oxide added to commercial laundry liquid (Waring blender); type: physicochemical; parameters: Difference: unit: ml; conditions: for Difference: initial minus 5 min foam volume
Experimental: The surface foam volume and foam persistence of solutions of the amine oxides with linear and branched hydrophobes from Examples […] were compared. A commercial laundry liquid was diluted in deionized water according to the dosing instructions; 4.2 ml/L Persil Original. The diluted detergent was supplemented with 0%, 2%, 5% (based on wt laundry liquid) of LAO or Branched C12 AO, (2,4-diethyl-N,N-dimethyloctan-1-amine oxide, Example 66), and the solutions mixed briefly and used immediately. 250 ml of each test solution was added the beaker of a Waring blender, capped, and then blended on High for 30 seconds and immediately transferred to a 1 L graduated cylinder. The total volume of foam plus liquid, as well as the liquid layer alone was recorded. The foam and liquid volumes were recorded again after 5 minutes. All tests were performed in triplicate.

[3] = Draves Wetting Test (ASTM D2281-68); type: physicochemical; conditions: 0.05 wt % (actives basis) in DI water; average of 3 measurements
Experimental: A 0.05 wt % (actives basis) solution of amine oxide in deionized (DI) water was used to determine the Draves wet-out time (WOT) in seconds. 0.75 g of surfactant was dispersed in 1,500 ml of DI water. The wet-out time (WOT) in seconds is recorded in Table 14 (average of 3 measurements). LAO is Lauramine oxide (linear hydrophobe), Sigma catalog number 40236.

zein protein = system: zein protein
Description: Amine oxides with linear and branched hydrophobes from Examples 65 and 66 were compared in a screen to predict mildness of surfactants. There is a correlation between the ability of a surfactant to denature a protein and the skin irritation potential of that surfactant. The relationship is believed to result from surfactant binding to proteins like keratin, followed by the denaturation of these proteins, leading to skin irritation. A common screening test involves measuring the amount of zein (a corn protein which is insoluble in water) solubilized by a surfactant solution, the Zein Solubilization Test (Moore et al., 2003 and references therein)
For the test, 0.0750 g of zein protein is transferred into a 1.5 mL centrifuge tube. To this 1.5 mL of 1% surfactant solution is added, mixed, and placed in a 30 C incubator with mild stirring for 30 minutes. After 30 minutes has elapsed, the tube is centrifuged for 30 min at 3600 rpm. The solution is filtered through a pre-weighed 8 micron filter paper, and then dried overnight in a 50° C. oven. The insoluble zein residue is then weighed and the wt % Zein dissolved is calculated using the equation below. Each solution is analyzed in triplicate. The Zein score is normalized to a standard included in each set of tests, in this case LAE10.
% zein dissolved=(total zein added−total zein after drying Total zein added)×100

[4] = Foam height, high shear (Waring blender); type: physicochemical
Experimental: A 0.05 wt % (actives basis) solution of the test surfactant was made in deionized water. 250 ml of the test solution was added the beaker of a Waring blender, capped, and then blended on High for 30 seconds and immediately transferred to a 1 L graduated cylinder. The total volume of foam plus liquid, as well as the liquid layer alone was recorded. The foam and liquid volumes were recorded again after 5 minutes.

[5] = Solubility of N-alkyl-N-methylglucamines in MilliQ water and SLS/SDS solution; type: physicochemical; conditions: for Solubility in 10 wt % SLS / Solubility in pure MilliQ: heated to 80° C., ultrasonicated, cooled to room temperature; for Solubility in 10 wt % SLS: pH 10.8-11.1; for Solubility in 10 wt % SDS: pH 11.8-12.1; for Solubility in pure MilliQ: pH 9-9.5
Experimental: The solubility of three N-alkyl-N-methylglucamines (i.e., N-(2-ethyl-hexyl)-N-methylglucamine, N-decyl-N-methylglucamine, and N-(4-ethyl-2-methyloctyl)-N-methylglucamine) was investigated in pure MilliQ water and in a 10 wt % sodium lauryl sulfate (SLS) solution. The mixtures were heated to 80° C., ultrasonicated, and cooled to room temperature.

[6] = High-shear foaming of N-alkyl-N-methylglucamines in commercial blender; type: physicochemical; conditions: 1 wt % test substance in 10 wt % SDS, diluted to 0.05 wt % surfactant
Experimental: The high-shear foaming behavior of linear and branched N-alkyl-N glucamines was investigated, as this can have an impact on their performance in home care applications. […] The solutions were heated to 80° C., ultrasonicated for 1 h, and cooled to room temperature. Finally, the as-obtained solutions were diluted with MilliQ water to obtain a 0.05 wt % surfactant solution. In agreement with the literature on branched hydrophobes, the high-shear foaming tests performed in the commercial blender indicate that the linear N-decyl-N-methylglucamine (IC10 NMG) solution foams relatively more than its branched counterpart solution. For all solutions, the initial foam volume is between 40 and 53 mL. Lauramine oxide (LAO) appears to be foamier than the N-alkyl-N-methylglucamines.

Compound: CCCCCCCCCCCC[N+](C)(C)Cc1ccccc1.[Cl-] [BAC-12 linear]
- MIC < 10% (Candida albicans): 0.0016 Weight percent
- MIC < 50% (Candida albicans): 0.00078 Weight percent
- MLC (Candida albicans): 0.0016 Weight percent
- MIC < 10% (Escherichia coli): 0.00078 Weight percent
- MIC < 50% (Escherichia coli): 0.00078 Weight percent
- MLC (Escherichia coli): 0.00078 Weight percent
- MIC < 10% (Staphylococcus aureus): 0.0002 Weight percent
- MIC < 50% (Staphylococcus aureus): 0.0002 Weight percent
- MLC (Staphylococcus aureus): 0.0002 Weight percent

Compound: CCCCC(CC)CC(CC)C[N+](C)(C)Cc1ccccc1.[Cl-] (stereo not shown) [BAC-b12, N-benzyl-2,4-diethyl-N,N-dimethyloctan-1-aminium chloride]
- MIC < 10% (Candida albicans): 0.0063 Weight percent
- MIC < 50% (Candida albicans): 0.0063 Weight percent
- MLC (Candida albicans): 0.0063 Weight percent
- MIC < 10% (Escherichia coli): 0.0063 Weight percent
- MIC < 50% (Escherichia coli): 0.0063 Weight percent
- MLC (Escherichia coli): 0.0063 Weight percent
- MIC < 10% (Staphylococcus aureus): 0.00039 Weight percent
- MIC < 50% (Staphylococcus aureus): 0.00039 Weight percent
- MLC (Staphylococcus aureus): 0.00078 Weight percent

Compound: Cc1cc(O)cc(C)c1Cl [Chloroxylenol]
- MIC < 10% (Candida albicans): 0.0083 Weight percent
- MIC < 50% (Candida albicans): 0.0083 Weight percent
- MLC (Candida albicans): >0.0083 Weight percent
- MIC < 10% (Escherichia coli): >0.0083 Weight percent
- MIC < 50% (Escherichia coli): >0.0083 Weight percent
- MLC (Escherichia coli): >0.0083 Weight percent
- MIC < 10% (Staphylococcus aureus): 0.0042 Weight percent
- MIC < 50% (Staphylococcus aureus): 0.0042 Weight percent
- MLC (Staphylococcus aureus): >0.0083 Weight percent

Compound: CCCCC(CC)CC(C)C=O (stereo not shown) [Example 2, 4-ethyl-2-methyloctanal]
- Biodegradation (%) ([1]; Day 0): 0%
- Biodegradation (%) ([1]; Day 2): 0%
- Biodegradation (%) ([1]; Day 6): 15%
- Biodegradation (%) ([1]; Day 7): 21%
- Biodegradation (%) ([1]; Day 9): 31%
- Biodegradation (%) ([1]; Day 14): 47%
- Biodegradation (%) ([1]; Day 19): 54%
- Biodegradation (%) ([1]; Day 23): 56%
- Biodegradation (%) ([1]; Day 28): 57%
- Biodegradation (%) ([1]; Day 29 (first line)): 57%
- Biodegradation (%) ([1]; Day 29 (second line)): 61%

Compound: CCCCC(CC)CC(C=O)CC (stereo not shown) [Example 25, 2,4-diethyloctanal]
- Biodegradation (%) ([1]; Day 0): 0%
- Biodegradation (%) ([1]; Day 2): 0%
- Biodegradation (%) ([1]; Day 6): 0%
- Biodegradation (%) ([1]; Day 7): 9%
- Biodegradation (%) ([1]; Day 9): 27%
- Biodegradation (%) ([1]; Day 14): 48%
- Biodegradation (%) ([1]; Day 19): 53%
- Biodegradation (%) ([1]; Day 23): 53%
- Biodegradation (%) ([1]; Day 28): 55%
- Biodegradation (%) ([1]; Day 29 (first line)): 55%
- Biodegradation (%) ([1]; Day 29 (second line)): 57%

Compound: CCCCC(CC)CC(CC)C[N+](C)(C)[O-] (stereo not shown) [Example 66, 2,4-diethyl-N,N-dimethyloctan-1-amine oxide]
- Foam volume After 5 min ([2]; Persil + 2% additive): 303 mL
- Difference ([2]; Persil + 2% additive): 257
- Difference ([2]; Persil + 5% additive): 280
- Initial foam volume ([2]; Persil Original 4.2 ml/L + 2% additive): 560 mL
- Wet out time [3]: >300 s
- Zein score - normalized to LAE10 (zein protein; corn, 30 min, 1 %): 0.018
- Foam volume (ml) 5 min ([4]; 0.05 wt % in deionized water, after 5 minutes): 0 mL
- Foam volume (ml) Initial ([4]; 0.05 wt % in deionized water, blended on High 30 seconds): 370 mL
- % decrease ([4]; foam volume, initial to 5 min): 100%

Compound: CCCCC(CC)CN(C)C[C@H](O)[C@@H](O)[C@H](O)[C@H](O)CO (stereo partly shown) [N-(2-ethyl-hexyl)-N-methylglucamine, N-(2-ethylhexyl)-N-methylglucamine]
- Solubility in 10 wt % SLS [5]: >1000 ppm
- Solubility in 10 wt % SDS [5]: ≥1%

Compound: CCCCC(CC)CC(C)CN(C)C[C@H](O)[C@@H](O)[C@H](O)[C@H](O)CO (stereo partly shown) [N-(4-ethyl-2-methyloctyl)-N-methylglucamine]
- Solubility in pure MilliQ [5]: <1000 ppm
- Solubility in 10 wt % SLS [5]: >1000 ppm
- Solubility in 10 wt % SDS [5]: ≥1%

Compound: CCCCCCCCCCN(C)C[C@H](O)[C@@H](O)[C@H](O)[C@H](O)CO [N-decyl-N-methylglucamine]
- Foam volume after 5 seconds stirring at speed 1 [6]: 50 mL
- Foam volume after 5 minutes settling [6]: 49 mL
- Solubility in pure MilliQ [5]: <1000 ppm
- Solubility in 10 wt % SLS [5]: >1000 ppm
- Solubility in 10 wt % SDS [5]: ≥1%

Compound: Oc1cc(Cl)ccc1Oc1ccc(Cl)cc1Cl [Triclosan]
- MIC < 10% (Candida albicans): 0.0016 Weight percent
- MIC < 50% (Candida albicans): 0.0016 Weight percent
- MLC (Candida albicans): >0.0016 Weight percent
- MIC < 10% (Escherichia coli): 0.00010 Weight percent
- MIC < 50% (Escherichia coli): 0.00010 Weight percent
- MLC (Escherichia coli): 0.00010 Weight percent
- MIC < 10% (Staphylococcus aureus): 0.00002 Weight percent
- MIC < 50% (Staphylococcus aureus): 0.00002 Weight percent
- MLC (Staphylococcus aureus): 0.00003 Weight percent

Compound: CCCCC(CC)CN(C)C[C@H](O)[C@@H](O)[C@H](O)[C@H](O)CO (stereo partly shown) [bC10 NMG]
- Foam volume after 5 seconds stirring at speed 1 [6]: 40 mL
- Foam volume after 5 minutes settling [6]: 38 mL

Compound: CC(=O)[O-].[Na+] [sodium acetate, reference compound]
- Biodegradation (%) ([1]; Day 0): 0%
- Biodegradation (%) ([1]; Day 2): 32%
- Biodegradation (%) ([1]; Day 6): 52%
- Biodegradation (%) ([1]; Day 7): 54%
- Biodegradation (%) ([1]; Day 9): 60%
- Biodegradation (%) ([1]; Day 14): 66%
- Biodegradation (%) ([1]; Day 19): 69%
- Biodegradation (%) ([1]; Day 23): 71%
- Biodegradation (%) ([1]; Day 28): 72%
- Biodegradation (%) ([1]; Day 29 (first line)): 74%
- Biodegradation (%) ([1]; Day 29 (second line)): 78%

Compound: Sodium lauryl ether sulfate [SLES]
- Zein score - normalized to LAE10 (zein protein): 3.488
